Reference: US9464291B2, “Methods and compositions for the treatment of cancer” (University of South Alabama, priority 2012, dated 2016)
Entries after “also recorded” stand apart in the source; their conditions may differ.

Tests used:
OPN [1] = test: OPN mRNA by qRT-PCR in metastatic melanoma cell lines; type: cell-based, human; settings: MDA-MB-435
Experimental: This medium was replaced with fresh cyclopamine-containing medium after 12 h. […] RNA was assessed by real-time RT-PCR for OPN transcript levels.
Quantitative RT-PCR (qRT-PCR)-cDNA was generated using High Capacity Reverse Transcriptase Kit (Applied Biosystems, Foster City, Calif.). Real time PCR was performed using a Bio-Rad iQ5 Real-Time Detection system (Bio-Rad). All reactions were done as three independent replicates. All assays were done using the TaqMan Gene Expression Assays from Applied Biosystems. OPN (SPP1: Hs 00959010_m1) transcript levels were normalized to glyceraldehyde-3-phosphate dehydrogenase (Hs 99999905_m1) levels (δCT), which was used to calculate changes in OPN expression (2^−δδCT). […] GLI1 and SHH (Hs 00179843_m1) expressions were also similarly assessed with glyceraldehyde-3-phosphate dehydrogenase as an endogenous control. To analyze the knockdown effectiveness, “scrambled transfectants” of MDA-MB-435 was set as calibrator.

OPN [2] = test: OPN regulation and GLI1 localisation in osteoblastic cells hFOB and MC3T3-E1; type: cell-based
Experimental: The role of the Hedgehog pathway in regulating the expression of OPN in the two osteoblastic cell lines, hFOB and MC3T3-E1 was assessed.
Quantitative RT-PCR (qRT-PCR)-cDNA was generated using High Capacity Reverse Transcriptase Kit (Applied Biosystems, Foster City, Calif.). Real time PCR was performed using a BioRad iQ5 Real-Time Detection system (Bio-Rad, Hercules, Calif.). All reactions were done in triplicate. OPN transcript levels were normalized to GAPDH levels (dCT) which was used to calculate changes in OPN expression (2-ddCT). […] The primers used included Spp1 (OPN) (Mm 00436767_m1); Bglap (osteocalcin) (Mm 01741771_g1); IBSP (Mm 00492555_m1); PTHrP (Mm 00433057_m1); RANKL (Mm 00441906_m1); GAPDH (Mm 99999915_g1).

RAW264.7 cells = test: Osteoclast differentiation, TRAP assay, RAW264.7; type: cell-based, murine
Experimental: Cell lines—Human metastatic breast cancer cells, MDA-MB-231, were cultured in Dulbecco's Modified Eagle's Medium (DMEM/F12; Invitrogen, Carlsbad, Calif.), supplemented with 2 mM L-glutamine, 1 mM sodium pyruvate, 0.02 mM non-essential amino acids, 5% fetal bovine serum, FBS (Atlanta Biologicals, Norcross, Ga.), without antibiotics or antimycotics (cDME/F12). SUM1315 and SUM159 cells (DiMeo, T. A., et al. (2009) Cancer Res 69, 5364-5373) (Asterand, Detroit, Mich.) were cultured in DMEM/F12 supplemented with […] insulin, 5% FBS (Atlanta Biologicals) and either 10 ng/ml EGF or 1 ng/ml hydrocortisone, without antibiotics or antimycotics. The SUM1315 cells are derived from a metastasis in a patient with infiltrating ductal carcinoma; SUM159 cells were derived from a primary breast tumor with metaplastic ccarcinoma. RAW264.7 (ATCC, TIB 71) cells, a murine pre-osteoclastic line capable of differentiation and mineralization in culture (in presence of RANKL and MCSF), were grown in DMEM with L-glutamine (ATCC, 30-2002) supplemented with 10% FBS. A 2× differentiation medium (DM) was formulated for the RAW 264.7 cells comprising RAW264.7 growth medium supplemented with 20% FBS, RANKL (100 ng/ml) and M-CSF (40 ng/ml) (Matsubara, T., et al. J Bone Miner Res 25, 1068-1076). Conditioned media was harvested from breast cancer cells and mixed in a 1:1 ratio with double strength differentiation medium to assess the effect on osteoclast differentiation. 1×DM was used as control or wherever SHH (R & D Systems, Minneapolis, Minn.) or OPN (R & D Systems) was used alone. The medium on the RAW264.7 cells was replenished every 48 hours. In order to assess the effect of secreted Hh ligands, the neutralizing 5E1 antibody was used (Developmental Studies Hybridoma Bank, at the University of Iowa, Iowa). The amount of 5E1 antibody used for the studies was determined following titration of the antibody with respect to its effects on osteoclast differentiation. Medium was supplemented with 5E1 (2.5 μg/ml) and was changed on alternate days until the end of the experiment. The effect of OPN on osteoclast activity was assessed by transfecting an OPN shRNA-expressing construct on day 6 post-induction of differentiation. Fresh DM was added the following day and cells were allowed to grow for another 12 hours before termination of experiment. GLI1 expression was silenced in the SUM1315 cells using shRNA targeting GLI1 into pSuperior. gfp+neo (Oligoengine, Wash., USA). […]
Osteoclast differentiation and activity assays—Tartarate-resistant acid phosphatase (TRAP) assay was conducted for RAW 264.7 following the manufacturer's protocol (Sigma, St. Louis, Mo.). […] The percentage of area resorbed was calculated using the NIS-Elements BR. […]

OPN promoter = OPN promoter luciferase reporter assay in melanoma cell lines; type: cell-based, human; settings: MDA-MB-435, MCC012A, MCC012F
Experimental: Empty pGL3 vector was used as control. Hedgehog ligands were added to the well 6 h prior to harvesting the cells (approximately 33 hr of initiation of transfection) for assay. Readings were normalized to total protein content. Each parameter was studied in triplicate and the experiment repeated at least 3 times. The data are represented as percent luciferase activity, which was derived as a percent of the relative light units in treated groups compared with the untreated groups.

Compound | OPN mRNA levels (OPN [1]; MCC012A, MCC012F, cyclopamine 24 h) | OPN transcript levels (OPN [2]; hFOB / pre-osteoblasts, cyclopamine) | GLI1 subcellular localisation (OPN [2]; hFOB, cyclopamine 20 μM, 24 h) | osteoclast differentiation into TRAP-positive, multinucleate osteoclasts (RAW264.7 cells; DM + cyclopamine 20 μM) | ability of MDA-MB-435 conditioned medium to induce osteoclast differentiation (RAW264.7 cells; tumor cells treated with cyclopamine) | rescue of OPN transcript levels from cyclopamine inhibition (OPN [1]; cyclopamine 20 μM, recombinant SHH 100 nM) | OPN promoter activity (OPN promoter) | OPN promoter activity (OPN [2]; hFOB and MC3T3) | numbers of TRAP stained multinucleate cells (RAW264.7 cells; DM supplemented with SHH (100 nM) or OPN (100 ng/ml) vs DM alone)
CC1=C2C[C@H]3[C@@H](CC=C4C[C@@H](O)CC[C@@]43C)[C@@H]2CC[C@]12O[C@@H]1C[C@H](C)CN[C@H]1[C@H]2C [cyclopamine] | decreases the levels of OPN mRNA | decreases OPN mRNA levels; also recorded: inhibited the transcription of OPN; also recorded: reduction in the levels of OPN transcript levels | keeps GLI1 sequestered in the cytosolic compartment | significantly (p<0.0001) reduced the ability of DM to elicit differentiation | significant reduction in this ability | – | – | – | –
SHH: recombinant Sonic hedgehog ligand (R & D Systems) | – | – | – | – | – | reverse and rescue the inhibitory effects of cyclopamine | up-regulated the promoter activity of OPN | stimulated the promoter of OPN; also recorded: upregulation in OPN promoter activity | significant (p<0.005) increase
